Measured values from patent publication US20030013711A1, “Chemical derivatives and their application as antitelomerase agents” (priority 2001, published 2003).
pIC50: −log10 of the molar value.

Tested on: A549 cells
Assay: Cytotoxicity on human tumor line A549 (neutral red)
Assay type: cell-based
Settings: 96 hours incubation
Experimental: The Cytotoxic Biological Activity on Human Tumor Lines is Determined According to the Following Experimental Protocol:
The human cell lines KB and A549 are obtained from the ATCC (American Type Culture Collection, Rockville, USA). The A549 cells are cultured as a layer in a culture flask in RPMI 1640 medium, L-glutamine to 2 mM, 200 U/ml penicillin, 200 μg/ml streptomycin and supplemented with 10% heat-inactivated fetal calf serum. The KB cells are cultured as a layer in a culture flask in Dulbelco's medium containing L-glutamine to 2 mM, 200 U/ml penicillin, 200 μg/ml streptomycin and supplemented with 10% heat-inactivated fetal calf serum.
The cells in exponential growth phase are trypsinized, washed in PBS 1×, and inoculated in 96-well microplates (Costar) at a concentration of 4×10^4 cells/ml for A549 and 1.5×10^4 cells/ml (0.2 ml/well) for KB cells. The cells are then incubated for 96 hours in the presence of variable concentrations of test compounds (10, 1, 0.1 and 0.01 μg/ml, each point being determined in quadruplicate). Sixteen hours before the end of the incubation, neutral red is added to a final concentration of 0.02% in each well. […] The cellular incorporation of the dye, which reflects the cell growth, is evaluated by spectrophotometry at a wavelength of 540 nm for each sample using a Dynatech MR5000 reading machine. […]

SMILES: CSc1nc(Nc2ccc3nc(C)cc(N)c3c2)nc(OC2CCN(C)CC2)n1 [Example 3, N6-[6-(1-methylpiperid-4-yloxy)-4-methylsulfanyl-[1,3,5]triazin-2-yl]-2-methylquinoline-4,6-diamine]
- pIC50: 5.22
